Data from ChEMBL document CHEMBL1146714, “Peptidyl hydroxamic acids as methionine aminopeptidase inhibitors” (Bioorg Med Chem Lett, 2004).

Assays:
[1] = target: Methionine aminopeptidase 2 (Homo sapiens, UniProt P50579); test: Inhibitory activity against Methionine aminopeptidase 2
[2] = Inhibitory activity against methionine Escherichia coli aminopeptidase (MetAP)

Chain of Methionine aminopeptidase 2 (P50579 whole entry): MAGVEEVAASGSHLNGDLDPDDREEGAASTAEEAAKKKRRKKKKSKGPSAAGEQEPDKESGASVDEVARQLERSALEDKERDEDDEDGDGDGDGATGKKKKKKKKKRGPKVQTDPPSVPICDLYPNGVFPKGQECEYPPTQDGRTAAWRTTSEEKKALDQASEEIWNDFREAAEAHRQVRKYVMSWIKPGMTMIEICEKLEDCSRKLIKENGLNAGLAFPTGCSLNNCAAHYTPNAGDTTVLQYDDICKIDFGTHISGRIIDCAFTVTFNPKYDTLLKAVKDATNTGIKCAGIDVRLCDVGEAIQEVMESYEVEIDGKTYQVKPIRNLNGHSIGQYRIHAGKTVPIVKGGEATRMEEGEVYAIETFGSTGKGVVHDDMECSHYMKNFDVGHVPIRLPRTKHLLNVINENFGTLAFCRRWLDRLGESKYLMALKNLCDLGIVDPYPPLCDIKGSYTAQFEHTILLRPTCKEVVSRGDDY

For C[C@@H](N)C(=O)N(O)CC(=O)O, the Ki [1] was 600 µM and the Ki [2] was 8.8 µM.
CSCC[C@H](N)C(=O)N(O)CC(=O)O showed a Ki [1] of 1300 µM and a Ki [2] of 170 µM.
Molecule CCCC[C@H](N)C(=O)N(O)CCC(=O)NCCc1ccccn1 has a Ki [2] of 48 µM.
Molecule CCCC[C@H](N)C(=O)N(O)CC(=O)NCCc1ccccn1 has a Ki [1] of 164 µM and a Ki [2] of 59 µM.
In the case of CSCC[C@H](N)C(=O)N(O)CC(=O)NCCc1ccccn1, the Ki [2] is reported as 2.5 µM.
